# Measurements as given in PubChem BioAssay (NCI).
#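 Compound exposure: 48 hours, 5 concentrations, 96-well plates. GI50 marks 50% less growth. TGI: total growth inhibition.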
# What was measured:
# Experiment in all cases: NCI tumour cell line growth inhibition, 48 h
# 786-0 renal = tested on: 786-0 renal
# A549 NSCLC = tested on: A549 NSCLC
# ACHN renal = tested on: ACHN renal
# BT-549 breast = tested on: BT-549 breast
# CAKI-1 renal = tested on: CAKI-1 renal
# CCRF-CEM leukemia = tested on: CCRF-CEM leukemia
# COLO 205 colon = tested on: COLO 205 colon
# DU-145 prostate = tested on: DU-145 prostate
# EKVX NSCLC = tested on: EKVX NSCLC
# HCC-2998 colon = tested on: HCC-2998 colon
# HCT-116 colon = tested on: HCT-116 colon
# HCT-15 colon = tested on: HCT-15 colon
# HL-60(TB) leukemia = tested on: HL-60(TB) leukemia
# HOP-62 NSCLC = tested on: HOP-62 NSCLC
# HOP-92 NSCLC = tested on: HOP-92 NSCLC
# HS 578T breast = tested on: HS 578T breast
# HT29 colon = tested on: HT29 colon
# IGROV1 ovarian = tested on: IGROV1 ovarian
# K-562 leukemia = tested on: K-562 leukemia
# KM12 colon = tested on: KM12 colon
# M14 melanoma = tested on: M14 melanoma
# MALME-3M melanoma = tested on: MALME-3M melanoma
# MCF7 breast = tested on: MCF7 breast
# MDA-MB-231 breast = tested on: MDA-MB-231 breast
# MDA-MB-435 = tested on: MDA-MB-435
# MOLT-4 leukemia = tested on: MOLT-4 leukemia
# NCI-H226 lung = tested on: NCI-H226 lung
# NCI-H23 lung = tested on: NCI-H23 lung
# NCI-H460 lung = tested on: NCI-H460 lung
# NCI-H522 lung = tested on: NCI-H522 lung
# NCI/ADR-RES ovarian = tested on: NCI/ADR-RES ovarian
# OVCAR-3 ovarian = tested on: OVCAR-3 ovarian
# OVCAR-4 ovarian = tested on: OVCAR-4 ovarian
# OVCAR-5 ovarian = tested on: OVCAR-5 ovarian
# OVCAR-8 ovarian = tested on: OVCAR-8 ovarian
# PC-3 prostate = tested on: PC-3 prostate
# RPMI-8226 leukemia = tested on: RPMI-8226 leukemia
# RXF 393 renal = tested on: RXF 393 renal
# SF-268 CNS = tested on: SF-268 CNS
# SF-295 CNS = tested on: SF-295 CNS
# SF-539 CNS = tested on: SF-539 CNS
# SK-MEL-2 melanoma = tested on: SK-MEL-2 melanoma
# SK-MEL-28 melanoma = tested on: SK-MEL-28 melanoma
# SK-MEL-5 melanoma = tested on: SK-MEL-5 melanoma
# SK-OV-3 ovarian = tested on: SK-OV-3 ovarian
# SN12C renal = tested on: SN12C renal
# SNB-19 CNS = tested on: SNB-19 CNS
# SR leukemia = tested on: SR leukemia
# SW-620 colon = tested on: SW-620 colon
# T-47D breast = tested on: T-47D breast
# TK-10 renal = tested on: TK-10 renal
# U251 CNS = tested on: U251 CNS
# UACC-257 melanoma = tested on: UACC-257 melanoma
# UACC-62 melanoma = tested on: UACC-62 melanoma
# UO-31 renal = tested on: UO-31 renal
# LOX IMVI melanoma = tested on: LOX IMVI melanoma
structure (smiles),measurement,setting,value
CC(C)(C)n1cc(-c2ccnc(NCCNS(=O)(=O)c3cccc4ccccc34)c2)c(-c2cccc(F)c2)n1,GI50,786-0 renal,2.44 µM
same,TGI,786-0 renal,6.75 µM
same,GI50,A549 NSCLC,16.7 µM
same,TGI,A549 NSCLC,76.6 µM
same,GI50,ACHN renal,18.9 µM
same,TGI,ACHN renal,49 µM
same,GI50,BT-549 breast,10.6 µM
same,TGI,BT-549 breast,26.7 µM
same,GI50,CAKI-1 renal,16 µM
same,TGI,CAKI-1 renal,30.8 µM
same,GI50,CCRF-CEM leukemia,8.38 µM
same,TGI,CCRF-CEM leukemia,> 100 µM
same,GI50,COLO 205 colon,8.98 µM
same,TGI,COLO 205 colon,43.3 µM
same,GI50,DU-145 prostate,26.7 µM
same,TGI,DU-145 prostate,> 100 µM
same,GI50,EKVX NSCLC,17.2 µM
same,TGI,EKVX NSCLC,> 100 µM
same,GI50,HCC-2998 colon,13.2 µM
same,TGI,HCC-2998 colon,37.9 µM
same,GI50,HCT-116 colon,4.62 µM
same,TGI,HCT-116 colon,19.2 µM
same,GI50,HCT-15 colon,6 µM
same,TGI,HCT-15 colon,24.9 µM
same,GI50,HL-60(TB) leukemia,17.5 µM
same,TGI,HL-60(TB) leukemia,44.5 µM
same,GI50,HOP-62 NSCLC,17.2 µM
same,TGI,HOP-62 NSCLC,46.3 µM
same,GI50,HOP-92 NSCLC,2.74 µM
same,TGI,HOP-92 NSCLC,21.2 µM
same,GI50,HS 578T breast,16.7 µM
same,TGI,HS 578T breast,46 µM
same,GI50,HT29 colon,5.25 µM
same,TGI,HT29 colon,23.9 µM
same,GI50,IGROV1 ovarian,18.6 µM
same,TGI,IGROV1 ovarian,64.3 µM
same,GI50,K-562 leukemia,5.9 µM
same,TGI,K-562 leukemia,82.2 µM
same,GI50,KM12 colon,17.9 µM
same,TGI,KM12 colon,55.8 µM
same,GI50,M14 melanoma,11.7 µM
same,TGI,M14 melanoma,48.2 µM
same,GI50,MALME-3M melanoma,15.3 µM
same,TGI,MALME-3M melanoma,36.8 µM
same,GI50,MCF7 breast,16.3 µM
same,TGI,MCF7 breast,59.6 µM
same,GI50,MDA-MB-231 breast,24.2 µM
same,TGI,MDA-MB-231 breast,> 100 µM
same,GI50,MDA-MB-435,19.1 µM
same,TGI,MDA-MB-435,38.7 µM
same,GI50,MOLT-4 leukemia,10 µM
same,TGI,MOLT-4 leukemia,> 100 µM
same,GI50,NCI-H226 lung,12.2 µM
same,TGI,NCI-H226 lung,43.4 µM
same,GI50,NCI-H23 lung,14.9 µM
same,TGI,NCI-H23 lung,59.1 µM
same,GI50,NCI-H460 lung,20 µM
same,TGI,NCI-H460 lung,56.7 µM
same,GI50,NCI-H522 lung,15.5 µM
same,TGI,NCI-H522 lung,44.5 µM
same,GI50,NCI/ADR-RES ovarian,21.4 µM
same,TGI,NCI/ADR-RES ovarian,> 100 µM
same,GI50,OVCAR-3 ovarian,15.4 µM
same,TGI,OVCAR-3 ovarian,30.4 µM
same,GI50,OVCAR-4 ovarian,14.6 µM
same,TGI,OVCAR-4 ovarian,53.7 µM
same,GI50,OVCAR-5 ovarian,23.7 µM
same,TGI,OVCAR-5 ovarian,69.9 µM
same,GI50,OVCAR-8 ovarian,26.7 µM
same,TGI,OVCAR-8 ovarian,> 100 µM
same,GI50,PC-3 prostate,4.71 µM
same,TGI,PC-3 prostate,54.4 µM
same,GI50,RPMI-8226 leukemia,6.2 µM
same,TGI,RPMI-8226 leukemia,44.9 µM
same,GI50,RXF 393 renal,12.4 µM
same,TGI,RXF 393 renal,30.2 µM
same,GI50,SF-268 CNS,40.3 µM
same,TGI,SF-268 CNS,> 100 µM
same,GI50,SF-295 CNS,22.3 µM
same,TGI,SF-295 CNS,57.3 µM
same,GI50,SF-539 CNS,16.1 µM
same,TGI,SF-539 CNS,31.7 µM
same,GI50,SK-MEL-2 melanoma,21.4 µM
same,TGI,SK-MEL-2 melanoma,57.9 µM
same,GI50,SK-MEL-28 melanoma,16.6 µM
same,TGI,SK-MEL-28 melanoma,37 µM
same,GI50,SK-MEL-5 melanoma,11.9 µM
same,TGI,SK-MEL-5 melanoma,24.9 µM
same,GI50,SK-OV-3 ovarian,26 µM
same,TGI,SK-OV-3 ovarian,> 100 µM
same,GI50,SN12C renal,13.7 µM
same,TGI,SN12C renal,29 µM
same,GI50,SNB-19 CNS,34.9 µM
same,TGI,SNB-19 CNS,> 100 µM
same,GI50,SR leukemia,9.27 µM
same,TGI,SR leukemia,> 100 µM
same,GI50,SW-620 colon,16.6 µM
same,TGI,SW-620 colon,42.3 µM
same,GI50,T-47D breast,4.22 µM
same,TGI,T-47D breast,47.8 µM
same,GI50,TK-10 renal,18.3 µM
same,TGI,TK-10 renal,40.5 µM
same,GI50,U251 CNS,12.4 µM
same,TGI,U251 CNS,33.4 µM
same,GI50,UACC-257 melanoma,25 µM
same,TGI,UACC-257 melanoma,86.7 µM
same,GI50,UACC-62 melanoma,17.3 µM
same,TGI,UACC-62 melanoma,47.7 µM
same,GI50,UO-31 renal,10.4 µM
same,TGI,UO-31 renal,59.8 µM
Clc1ccc(Nc2nc3ccccc3c3occc23)cc1,GI50,786-0 renal,8.33 µM
same,TGI,786-0 renal,15.1 µM
same,GI50,A549 NSCLC,8.13 µM
same,TGI,A549 NSCLC,16.8 µM
same,GI50,ACHN renal,9.16 µM
same,TGI,ACHN renal,18.9 µM
same,GI50,BT-549 breast,8.28 µM
same,TGI,BT-549 breast,15.2 µM
same,GI50,CAKI-1 renal,3.07 µM
same,TGI,CAKI-1 renal,10.2 µM
same,GI50,COLO 205 colon,6 µM
same,TGI,COLO 205 colon,13 µM
same,GI50,DU-145 prostate,7.01 µM
same,TGI,DU-145 prostate,13.5 µM
same,GI50,EKVX NSCLC,8.02 µM
same,TGI,EKVX NSCLC,15.9 µM
same,GI50,HCC-2998 colon,6.41 µM
same,TGI,HCC-2998 colon,12.7 µM
same,GI50,HCT-116 colon,8.74 µM
same,TGI,HCT-116 colon,15.7 µM
same,GI50,HCT-15 colon,11.2 µM
same,TGI,HCT-15 colon,34.4 µM
same,GI50,HL-60(TB) leukemia,24.4 µM
same,TGI,HL-60(TB) leukemia,> 50 µM
same,GI50,HOP-62 NSCLC,9.19 µM
same,TGI,HOP-62 NSCLC,17.3 µM
same,GI50,HOP-92 NSCLC,6.53 µM
same,TGI,HOP-92 NSCLC,13.2 µM
same,GI50,HS 578T breast,6.95 µM
same,TGI,HS 578T breast,16.3 µM
same,GI50,IGROV1 ovarian,10.2 µM
same,TGI,IGROV1 ovarian,27.3 µM
same,GI50,K-562 leukemia,13.6 µM
same,TGI,K-562 leukemia,> 50 µM
same,GI50,KM12 colon,6.46 µM
same,TGI,KM12 colon,13.8 µM
same,GI50,LOX IMVI melanoma,5.49 µM
same,TGI,LOX IMVI melanoma,14.3 µM
same,GI50,M14 melanoma,8.46 µM
same,TGI,M14 melanoma,16.9 µM
same,GI50,MCF7 breast,10.9 µM
same,TGI,MCF7 breast,> 50 µM
same,GI50,MDA-MB-231 breast,9.1 µM
same,TGI,MDA-MB-231 breast,24.7 µM
same,GI50,MDA-MB-435,7.5 µM
same,TGI,MDA-MB-435,14.1 µM
same,GI50,NCI-H23 lung,8.02 µM
same,TGI,NCI-H23 lung,14.9 µM
same,GI50,NCI-H460 lung,13 µM
same,TGI,NCI-H460 lung,35.2 µM
same,GI50,NCI-H522 lung,9.83 µM
same,TGI,NCI-H522 lung,20.3 µM
same,GI50,NCI/ADR-RES ovarian,8.7 µM
same,TGI,NCI/ADR-RES ovarian,15.6 µM
same,GI50,OVCAR-3 ovarian,5.92 µM
same,TGI,OVCAR-3 ovarian,12.1 µM
same,GI50,OVCAR-4 ovarian,8.7 µM
same,TGI,OVCAR-4 ovarian,19.8 µM
same,GI50,OVCAR-5 ovarian,9.4 µM
same,TGI,OVCAR-5 ovarian,18.4 µM
same,GI50,OVCAR-8 ovarian,9.2 µM
same,TGI,OVCAR-8 ovarian,20.9 µM
same,GI50,PC-3 prostate,7 µM
same,TGI,PC-3 prostate,13.5 µM
same,GI50,RPMI-8226 leukemia,11.3 µM
same,TGI,RPMI-8226 leukemia,27.4 µM
same,GI50,RXF 393 renal,8.4 µM
same,TGI,RXF 393 renal,16.9 µM
same,GI50,SF-268 CNS,8.09 µM
same,TGI,SF-268 CNS,16.7 µM
same,GI50,SF-295 CNS,6.86 µM
same,TGI,SF-295 CNS,13.3 µM
same,GI50,SF-539 CNS,9.62 µM
same,TGI,SF-539 CNS,17.5 µM
same,GI50,SK-MEL-2 melanoma,9.53 µM
same,TGI,SK-MEL-2 melanoma,21.7 µM
same,GI50,SK-MEL-28 melanoma,6.39 µM
same,TGI,SK-MEL-28 melanoma,14.4 µM
same,GI50,SK-MEL-5 melanoma,7.52 µM
same,TGI,SK-MEL-5 melanoma,14.1 µM
same,GI50,SK-OV-3 ovarian,8.15 µM
same,TGI,SK-OV-3 ovarian,16 µM
same,GI50,SN12C renal,10.9 µM
same,TGI,SN12C renal,22.6 µM
same,GI50,SNB-19 CNS,8.78 µM
same,TGI,SNB-19 CNS,16.2 µM
same,GI50,SR leukemia,23.2 µM
same,TGI,SR leukemia,> 50 µM
same,GI50,SW-620 colon,8.04 µM
same,TGI,SW-620 colon,14.8 µM
same,GI50,T-47D breast,1.52 µM
same,TGI,T-47D breast,11.3 µM
same,GI50,TK-10 renal,4.99 µM
same,TGI,TK-10 renal,11 µM
same,GI50,U251 CNS,8.66 µM
same,TGI,U251 CNS,16.2 µM
same,GI50,UACC-257 melanoma,10.4 µM
same,TGI,UACC-257 melanoma,19.2 µM
same,GI50,UACC-62 melanoma,8.1 µM
same,TGI,UACC-62 melanoma,18.3 µM
same,GI50,UO-31 renal,7.91 µM
same,TGI,UO-31 renal,22.6 µM
